{"source": "patent US10888551B2", "about": "“Drug delivery system” (Indian Institute of Technology, Bombay, priority 2016, dated 2021)", "test_system": "KB cells", "assay": "Cell migration wound healing assay", "assay_type": "cell-based, Human", "details": "10 μM, 9 hours", "note": "Where a name gives a salt, the structure may show the parent alone."}
{"molecule": "CNC(=O)c1cc(Oc2ccc(NC(=O)Nc3ccc(Cl)c(C(F)(F)F)c3)cc2)ccn1", "note": "[Sraf, Sorafenib tosylate]", "values": [{"measurement": "retardation of migration of KB cells", "value": "30±9", "unit": "%"}, {"measurement": "width of the wound", "setting": "control 525±23 μm at 0 h", "value": "303±27", "unit": "μm"}]}
